According to US11529354B2, “Methods and compositions for the treatment of tuberculosis” (PRESIDENT AND FELLOWS OF HARVARD COLLEGE, priority 2017, dated 2022):
Values after ≈ are worked out from the molar mass of the structure shown. Read-outs that look alike come from different tables or passages of the source.

How the values were obtained:
[1] = test system: clinical Mycobacterium tuberculosis strains (HrRr: 77#, 76#, 80#); assay: microbe, parasite or virus in culture; type: cell-based; details: for MIC: Mycobacterium tuberculosis
[2] = test system: MDR-MTB isolates LZ94 and LZ99; assay: microbe, parasite or virus in culture; type: cell-based, Mycobacterium tuberculosis
[3] = Mycobacterium tuberculosis, read-out: MIC

In the case of `Cc1ccc2[nH]c3c(c2c1)CCCC3NCc1ccccc1` (stereo not shown) [CAS 118498-98-9, N-benzyl-6-methyl-2,3,4,9-tetrahydro-1H-carbazol-1-amine], the “concentration increase required to inhibit the drug resistant strains” value [1] is reported as “four-fold”, the MIC [1] is reported as 3.2 µg/mL (≈ 11 µM) and the MIC ([1]; strain 76#, HrRr) is reported as 25.6 µg/mL (≈ 88.2 µM). It also gave an MIC ([1]; strain 80#, HrRr) of 25.6 µg/mL (≈ 88.2 µM).

Molecule `CO[C@@H]1[C@@H](OC(=O)c2ccc(C)[nH]2)[C@@H](O)[C@H](Oc2ccc3c(O)c(NC(=O)c4ccc(O)c(CC=C(C)C)c4)c(=O)oc3c2Cl)OC1(C)C` [NSC 227186, [(3R,4S,5R,6S)-6-[8-chloro-4-hydroxy-3-[[4-hydroxy-3-(3-methylbut-2-enyl)benzoyl]amino]-2-oxochromen-7-yl]oxy-5-hydroxy-3-methoxy-2,2-dimethyloxan-4-yl]5-methyl-1H-pyrrole-2-carboxylate] has an MIC [2, 3] of 0.625 µg/mL (≈ 0.897 µM).

`Cn1ccc(=Nc2ccc(NC(=O)c3ccc(N=c4ccn(C)c5ccc([N+](=O)[O-])cc45)cc3)cc2)cc1` [NSC 260594, 4-[(1-methyl-6-nitroquinolin-4-ylidene)amino]-N-[4-[(1-methylpyridin-4-ylidene)amino]phenyl]benzamide] gave an MIC [2] of 1.25 µg/mL (≈ 2.48 µM), an MIC ([2]; Mycobacterium tuberculosis, Table 7 and text, […], read-out: MIC) of 0.625 µg/mL (≈ 1.24 µM) and an MIC [2, 3] of 0.625 µg/mL (≈ 1.24 µM). For the same molecule, the MIC ([2]; Table 7 and text, […], listed as Formula XI) was 1.25 µg/mL (≈ 2.48 µM).

`CO[C@H]1/C=C/O[C@@]2(C)Oc3c(C)c(O)c4c(O)c(c(/C=N/N5CCN(C)CC5)c(O)c4c3C2=O)NC(=O)/C(C)=C\C=C\[C@H](C)[C@H](O)[C@@H](C)[C@@H](O)[C@@H](C)[C@H](OC(C)=O)[C@@H]1C` [Rifampicin, reference compound] was tested, and the MIC ([2]; Mycobacterium tuberculosis) was 2 µg/mL (≈ 2.43 µM).
